Here are results for 16 compounds from patent US20260184687A1, “DIHYDROINDENE DERIVATIVES AS MALT1 INHIBITORS” (C4X Discovery Limited, priority 2022, published 2026).

Assay [1] has as its system IL-2 release from stimulated Jurkat cells. The experiment in a line: Human IL-2 Release Phenotypic Assay (Assay 3). In kind it is cell-based. Particulars: Jurkat cells (clone E6-1), 200 ng/mL PMA + 300 ng/mL ionomycin, IL-2 by ELISA. The protocol:
This assay measured the inhibition by MALT1 inhibitors of the IL-2 release from stimulated Jurkat cells, a human immortalized T lymphocyte cell line. IL-2 production from Jurkat cells is regulated by activation of NFκB signalling, which is in turn regulated by MALT1 protease activity.
Jurkat cells (clone E6-1, ATCC) were cultured in RPMI1640 supplemented with 10% (v/v) FBS and 1% (v/v) penicillin/streptomycin (100× liquid stocks). Cells were seeded in 96-well white tissue culture-treated plates (Perkin Elmer) at 50 000 cells/well and incubated overnight at 37° C., 5% CO2. Test compounds in DMSO at half-log dilutions were added to the cells and incubated for 30 mins. Final DMSO concentration was 0.5%. Cells were then stimulated with 200 ng/mL PMA+300 ng/mL ionomycin and incubated for 48 hours. […] IC50 values were calculated using GraphPad Prism using 4-parameter non-linear regression curve fit.
(In general: In an ELISA, binding on a coated surface is turned into a signal by an enzyme label.)

The next assay deals with T1, FL hMALT1 enzyme (Homo sapiens, UniProt Q9UDY8).
T1 sequence (Q9UDY8 1-824): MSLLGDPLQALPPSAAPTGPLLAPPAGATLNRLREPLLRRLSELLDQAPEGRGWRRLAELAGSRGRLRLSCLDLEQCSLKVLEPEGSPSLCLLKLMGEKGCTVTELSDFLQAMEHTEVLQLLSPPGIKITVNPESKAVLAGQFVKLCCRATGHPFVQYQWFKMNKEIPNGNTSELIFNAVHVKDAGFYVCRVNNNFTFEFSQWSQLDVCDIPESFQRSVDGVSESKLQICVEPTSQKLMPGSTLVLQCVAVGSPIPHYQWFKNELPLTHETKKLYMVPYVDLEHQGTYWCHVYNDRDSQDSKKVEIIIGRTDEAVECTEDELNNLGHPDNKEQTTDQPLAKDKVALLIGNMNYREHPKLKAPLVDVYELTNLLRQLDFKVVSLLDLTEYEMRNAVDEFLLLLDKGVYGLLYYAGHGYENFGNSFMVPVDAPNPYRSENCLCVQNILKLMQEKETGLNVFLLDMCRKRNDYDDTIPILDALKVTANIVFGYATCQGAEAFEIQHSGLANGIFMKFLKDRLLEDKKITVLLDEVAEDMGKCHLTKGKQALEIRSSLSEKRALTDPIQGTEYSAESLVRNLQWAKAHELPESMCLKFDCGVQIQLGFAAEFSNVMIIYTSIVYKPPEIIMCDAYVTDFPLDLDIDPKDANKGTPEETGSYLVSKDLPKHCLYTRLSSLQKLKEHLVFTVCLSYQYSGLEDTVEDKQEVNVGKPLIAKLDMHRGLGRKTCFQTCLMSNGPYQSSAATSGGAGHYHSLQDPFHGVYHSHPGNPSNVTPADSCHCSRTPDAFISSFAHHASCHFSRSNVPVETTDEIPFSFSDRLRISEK
The experiment in a line: biochemical.

In the case of `CN(C(=O)C1CNC(=O)O1)[C@@H](c1ccc(N[C@@H]2Cc3ccccc3C2(C)C)cn1)C(F)(F)F` (single isomer, unassigned) [Example 108], the IC50 (as a rule, the concentration needed to halve the response being measured) in assay [1] (48 hours) was determined as 900 nM; on FL hMALT1 enzyme, 150 nM.
Regarding `CN(C(=O)C1CCS(=O)(=O)CC1)[C@@H](c1ccc(NC2Cc3ccc(F)c(F)c3C2)cn1)C(F)(F)F` (single isomer, unassigned) [Example 262], the IC50 in assay [1] (48 hours) worked out at 7700 nM; at FL hMALT1 enzyme, 2680 nM.
As to `CN(C(=O)CC#N)[C@@H](c1ccc(NC2Cc3ccc(Cl)c(Cl)c3C2)cn1)C(F)(F)F` (single isomer, unassigned) [Example 350], the IC50 in assay [1] (Homo sapiens, Jurkat, 48 h) worked out at 230 nM; on FL hMALT1 enzyme it was 61 nM.
For the compound `CN1C(=O)CCC1C(=O)N(C)[C@@H](c1ccc(N[C@H]2Cc3ccccc3C2(C)C)cn1)C(F)(F)F` (single isomer, unassigned) [Example 225], the results for the 50% inhibitory concentration (IC50) (in assay [1] (48 hours); at FL hMALT1 enzyme) were 520 nM and 63 nM, respectively.
Take `CC(=O)N1CCC12CC(C(=O)N(C)[C@@H](c1ccc(NC3Cc4ccccc4C3(C)C)cn1)C(F)(F)F)C2` (single isomer, unassigned) [Example 235]: the IC50 worked out at 1000 nM in assay [1] (Homo sapiens, Jurkat, 48 h) and 60 nM against FL hMALT1 enzyme.
For `CN1CCC(C(=O)N(C)[C@@H](c2ccc(NC3Cc4ccccc4C3(C)C)cn2)C(F)(F)F)CC1` (single isomer, unassigned) [Example 133], the IC50 in assay [1] (48 hours) came to 600 nM; on FL hMALT1 enzyme, 150 nM.
Take `CC(=O)N[C@@H]1CC[C@H](C(=O)N(C)[C@@H](c2ccc(N[C@H]3Cc4ccccc4C3(C)C)cn2)C(F)(F)F)C1` [Example 187, (1,3-cis)-3-Acetamido-N—((S)-1-(5-(((S)-1,1-dimethyl-2,3-dihydro-1H-inden-2-yl)amino)pyridin-2-yl)-2,2,2-trifluoroethyl)-N-methylcyclobutane-1-carboxamide]: the IC50 in assay [1] (Homo sapiens, Jurkat, 48 h) amounted to 450 nM; against FL hMALT1 enzyme, 94 nM.
The matching figures for `CN(C(=O)C1CCS(=O)(=O)CC1)[C@@H](c1ccc(NC2Cc3ccc(Cl)c(F)c3C2)cn1)C(F)(F)F` (single isomer, unassigned) [Example 277]: 200 nM and 43 nM.
The matching figures for `CN(C(=O)[C@H]1C[C@H](N(C)C)C1)[C@@H](c1ccc(NC2Cc3ccccc3C2(C)C)cn1)C(F)(F)F` (single isomer, unassigned) [Example 112]: 430 nM and 230 nM.
As to `CN(C(=O)C1CCCNC1)[C@@H](c1ccc(NC2Cc3ccccc3C2(C)C)cn1)C(F)(F)F` (single isomer, unassigned) [Example 126], the IC50 turned out to be 700 nM in assay [1] (48 hours) and 120 nM on FL hMALT1 enzyme.
On to `CN(C(=O)C1CN2CCC1CC2)[C@@H](c1ccc(NC2Cc3ccccc3C2(C)C)cn1)C(F)(F)F` (single isomer, unassigned) [Example 140], for which the IC50 in assay [1] (Homo sapiens, Jurkat, 48 h) turned out to be 1270 nM; against FL hMALT1 enzyme, 180 nM.
Turning to `CN(C(=O)C1CCS(=O)(=O)CC1)[C@@H](c1ccc(N[C@H]2Cc3ccc(Cl)cc3C2)cn1)C(F)(F)F` (single isomer, unassigned) [Example 199], the IC50 in assay [1] (Homo sapiens, Jurkat, 48 h) is 290 nM; at FL hMALT1 enzyme it was 73 nM.
On to `CN1CCCC(C(=O)N(C)[C@@H](c2ccc(NC3Cc4ccccc4C3(C)C)cn2)C(F)(F)F)C1` (single isomer, unassigned) [Example 130], for which the IC50 in assay [1] (48 hours) was 1080 nM; at FL hMALT1 enzyme, 120 nM.
As to `CN(C(=O)C1CCS(=O)(=O)CC1)[C@@H](c1ccc(NC2Cc3ccc(Br)cc3C2)cn1)C(F)(F)F` (single isomer, unassigned) [Example 284], the IC50 stood at 490 nM in assay [1] (Homo sapiens, Jurkat, 48 h) and 85 nM against FL hMALT1 enzyme.
The matching figures for `CN1CC(C(=O)N(C)[C@@H](c2ccc(N[C@H]3Cc4ccccc4C3(C)C)cn2)C(F)(F)F)CCC1=O` (single isomer, unassigned) [Example 252]: 590 nM and 71 nM.
For the compound `CN(C(=O)C1CCN(S(C)(=O)=O)CC1)[C@@H](c1ccc(NC2Cc3ccc(Cl)c(Cl)c3C2)cn1)C(F)(F)F` (single isomer, unassigned) [Example 325], the IC50 in assay [1] (Homo sapiens, Jurkat, 48 h) was 35 nM; on FL hMALT1 enzyme, 9 nM.
